Earlier results on two compounds are cited in US20210260003A9 (AZIENDE CHIMICHE RIUNITE ANGELINI FRANCESCO A.C.R.A.F. …, priority 2017, published 2021).

The conditions of series [1]: orally administered.

For `CC(C(=O)O)c1cccc(C(=O)c2ccccc2)c1` (centres unmarked) [ketoprofen], the “peak concentration (time)” value in series [1] is 0.5 to 2 h.
Take hydroxypropyl-β-cyclodextrin: the solubility in water is reported as 600 mg/mL.
